Data on 25 compounds can be found in US20030082101A1, “Accelerators for increasing the rate of formation of free radicals and reactive oxygen species” (Cavalier Discovery, priority 2001, published 2003).

Assay type in all cases: biochemical
The subject of experiment [1] is ferritin. As to the kind of experiment: Release of iron from ferritin assay, additives, ultrasound (Example 10). As to conditions: 0.2 mg/mL ferritin, pH 7, 15 min. The procedure: (§1) The following example uses the release of iron from ferritin assay to show the effect of additives on the release of iron from ferritin during ultrasound exposure. All solutions were prepared in pH 7 acetic acid solution containing approximately 0.2 mg/mL ferritin and 1 mM ferrozine, and the concentration of 1,4-quinone indicated in the table below. Solutions were sonicated at 30 W, 2 MHz, 32-34 degrees Celsius for fifteen minutes using a PZT-8 1.8 cm diameter custom transducer. The sonicated solution was placed on an orbit shaker rotating at 25 RPM to ensure even sonication of the solution while the transducer was held stationary. Control solutions were placed in a controlled temperature bath at 32-34 degrees Celsius without sonication. After 15 minutes of treatment, an aliquot was tested for the presence of the iron-ferrozine chelate via absorbance at 562 nm. The amount of iron released was determined using the control solution corrected absorbance (subtract the absorbance of the control solution from the absorbance of the ultrasound solution). The corrected absorbance was compared to a ferrozine-iron standard curve to determine the enhanced iron release due to ultrasound exposure. The enhanced iron release due to ultrasound exposure in the presence of the additive was compared to the amount of enhanced iron release due to ultrasound exposure in the absence of any additives as follows: [formula]

Experiment [2] deals with ferritin. Briefly: Release of iron from ferritin assay, naphthoquinones, ultrasound (Example 8). The settings on record: iron release vs ultrasound without additive, 0.2 mg/mL ferritin, pH 7, 15 min. The protocol: as §1, with “of naphthoquinones” for “of additives”, “of naphthoquinone” for “of 1,4-quinone”, “the amount of” for “the enhanced”, “iron released.” for “iron release due to ultrasound exposure.”, “the naphthoquinone” for “the additive”

The test system of experiment [3] is deoxyribose. As to the kind of experiment: TBARS assay, existing sonodynamic agents with a metal, ultrasound (Example 13). The settings on record: 0.025 mM ferrous iron, 0.025 mM ferric iron. The procedure: (§2) All solutions were prepared in pH 7.5 phosphate buffer containing approximately 2 mM deoxyribose, 0.01% hydrogen peroxide, 0.025 mM ferrous iron, 0.025 mM ferric iron, and the additives indicated in the table below. Solutions were sonicated at 30 W, 2 MHz, 32-34 degrees Celsius for ten minutes using a PZT-8 1.8 cm diameter custom transducer. The sonicated solution was placed on an orbit shaker rotating at 25 RPM to ensure even sonication of the solution while the transducer was held stationary. Control solutions were placed in a controlled temperature bath at 32-34 degrees Celsius without sonication. After 10 minutes of treatment, 1 mL test solution was placed in a test tube followed by 2 mL of 1% 2-thiobarbituric acid and 2 mL of 2.8% trichloroacetic acid. The test tube was sealed and heated to 90 degrees Celsius for 30 minutes and allowed to cool to room temperature for 20 minutes. The absorbance at 532 nm was measured. The enhanced radical production during ultrasound exposure was determined by comparing the amount of deoxyribose degradation that occurs in the sonicated solution versus the control solution using the following equation: [formula]

Experiment [4] has as its system ferritin. As to the kind of experiment: Release of iron from ferritin assay, anthraquinones, ultrasound (Example 9). As to conditions: 0.2 mg/mL ferritin, pH 7.5, 15 min.
Protocol: All solutions are prepared in pH 7.5 phosphate buffer containing approximately 0.2 mg/mL ferritin and 1 mM ferrozine, and the concentration of anthraquinone indicated in the table below. Solutions are sonicated at 30 W, 2 MHz, 32-34 degrees Celsius for fifteen minutes using a PZT-8 1.8 cm diameter custom transducer. The sonicated solution is placed on an orbit shaker rotating at 25 RPM to ensure even sonication of the solution while the transducer is held stationary. Control solutions are placed in a controlled temperature bath at 32-34 degrees Celsius without sonication. After 15 minutes of treatment, an aliquot is tested for the presence of the iron-ferrozine chelate via absorbance at 562 nm. The amount of iron released is determined using the control solution corrected absorbance (subtract the absorbance of the control solution from the absorbance of the ultrasound solution). The corrected absorbance is compared to a ferrozine-iron standard curve to determine the amount of iron released.
Experiment [5] is described as follows: Free radical production when exposed to ultrasound and a metal (statements in the description). As to conditions: when exposed to ultrasound and a metal.
Experiment [6] has as its system deoxyribose. Briefly: TBARS assay, metals that enhance radical production during ultrasound (Example 6). The procedure:
as §2, with “The following example uses the thiobarbituric acid-reactive substances (TBARS) assay to identify metals that enhance radical production during ultrasound. All” for “All”, “peroxide,” for “peroxide, 0.025 mM ferrous iron, 0.025 mM ferric iron,”

Experiment [7] concerns deoxyribose. As to the kind of experiment: TBARS assay, additives with ferrous iron/EDTA, ultrasound (Example 11). As to conditions: 0.075 mM additive; 0.05 mM ferrous iron, 0.075 mM EDTA. The protocol:
as §2, with “The following example uses the thiobarbituric acid-reactive substances (TBARS) assay to identify metals that enhance radical production during ultrasound. All” for “All”, “are” for “were”, “0.05” for “0.025”, “iron added as FeSO4 hydrate, 0.075” for “iron, 0.025”, “EDTA,” for “ferric iron,”, “is” for “was”

The test system of experiment [8] is deoxyribose. Briefly: TBARS assay, existing sonodynamic agents with a metal, ultrasound (Example 14). The settings on record: 0.025 mM ferrous iron, 0.025 mM ferric iron. The procedure:
as §2, with “are” for “were”, “is” for “was”

Bounds are passed on as bounds.

Regarding `O=C1C=CC(=O)C=C1` [1,4 benzoquinone], the “% Ultrasound Mediated Activity” value in experiment [1] (concentration not given) is recorded as 0%.

On to `CC(C)=CCC1=C(O)C(=O)c2ccccc2C1=O` [2-hydroxy-3-(3-methyl-2-butenyl)-1,4-naphthoquinone], for which, in experiment [2] (15 uM additive), the “% Ultrasound Mediated Activity” value is on record as 72%.

For the compound `CC1=CC(=O)c2ccccc2C1=O` [2-methyl-1,4-naphthoquinone (menadione), 2-methyl-1,4-naphthoquinone], the “% Ultrasound Mediated Activity” value in experiment [2] (18 uM additive) was 5.3%.

With `O=C1C=CC(=O)c2c(O)ccc(O)c21` [5,8 dihydroxy-1,4-naphthoquinone], in experiment [2] (106 uM additive), the “% Ultrasound Mediated Activity” value is 185%. As for `O=C1C=CC(=O)c2c(O)cccc21` [5-hydroxy-1,4-naphthoquinone (juglone), 5-hydroxy-1,4-naphthoquinone], the “% Ultrasound Mediated Activity” value in experiment [2] (10 uM additive) was 93%. Take `CC1=CC(=O)c2c(O)cccc2C1=O` [5-hydroxy-2-methyl-1,4-naphthoquinone]: in experiment [2] (71 uM additive), the “% Ultrasound Mediated Activity” value was 155%.

Turning to `COc1cccc2c1C(=O)c1c(O)c3c(c(O)c1C2=O)C[C@@](O)(C(=O)CO)C[C@@H]3O[C@H]1C[C@H](N)[C@H](O)[C@H](C)O1` [Adriamycin], in experiment [3] (0.029 mM additive), the “% Ultrasound Mediated Activity vs Control” value is 29%. With `O=C1c2ccccc2C(=O)c2c1cc(S(=O)(=O)O)c(O)c2O` [Alizarin Red S, 3,4-dihydroxy-9,10-dioxo-2-anthracenesulfonic acid], the “% Ultrasound Mediated Activity” value in experiment [4] (0.05 mM additive) was over 50%. As for `O=C1c2ccccc2C(=O)c2cc(S(=O)(=O)O)ccc21` [Anthraquinone-2-sulfonic acid], the “% Ultrasound Mediated Activity” value in experiment [4] (concentration not given) was under 10%. On to `N[C@@H](CS)C(=O)O` [CYSTEINE], for which the “% Ultrasound Mediated Activity” value in experiment [1] (0.45 mM additive) came to 160%. In addition, in experiment [5], the free radical production result is “increase free radical production”. For `Cc1cc(O)c2c(c1)C(=O)c1cccc(O)c1C2=O` [Chrysophanol, 1,8-dihydroxy-3-methylanthraquinone], the “% Ultrasound Mediated Activity” value in experiment [4] (0.05 mM additive) is reported as over 50%. Consider `[Cl][Cu][Cl]` [Cupric chloride], for which the “% Ultrasound Mediated Activity vs Control” value in experiment [6] (cupric chloride 0.026 mM) is 82%. `O=C(O)/C(O)=C(\O)C(=O)O` [DIHYDROXYFUMARATE]: the “% Ultrasound Mediated Activity” value in experiment [1] (0.01 mM additive) is recorded as 72%.

With `Cc1cc(O)c2c(c1)C(=O)c1cc(O)cc(O)c1C2=O` [Emodin, 6-methyl-1,3,8-trihydroxyanthraquinone], the “% Ultrasound Mediated Activity” value in experiment [4] (0.05 mM additive) was over 50%. `[Cl][Fe]([Cl])[Cl]` [Ferric iron added as FeCl3, FeCl3]: in experiment [6] (ferric iron approx 0.1 mM), the “% Ultrasound Mediated Activity vs Control” value was 76%. For the compound `O=S(=O)([O-])[O-].O=S(=O)([O-])[O-].[Fe+2].[NH4+].[NH4+]` [Ferrous iron added as Fe(NH4)2(SO4)2, Fe(NH4)2(SO4)2], the “% Ultrasound Mediated Activity vs Control” value in experiment [6] (ferrous iron 0.1 mM) is 12%. Turning to `O=c1c(O)c(-c2cc(O)c(O)c(O)c2)oc2cc(O)cc(O)c12` [Myricetin], the “% Ultrasound Mediated Activity vs Control” value in experiment [7] is listed as over 100%.

For the compound `CC(C)(S)[C@@H](N)C(=O)O` [PENICILLAMINE], in experiment [1] (0.11 mM additive), the “% Ultrasound Mediated Activity” value came to 117%. In addition, the free radical production entry in experiment [5] is listed as “increase free radical production”. `O=c1c(O)c(-c2ccc(O)c(O)c2)oc2cc(O)cc(O)c12` [Quercetin]: the “% Ultrasound Mediated Activity vs Control” value in experiment [7] was over 100%. `O=C(O)c1cc(O)c2c(c1)C(=O)c1cccc(O)c1C2=O` [Rhein, 9,10-dihydro-4,5-dihydroxy-9,10-dioxo-2-anthracenecarboxylic acid]: the “% Ultrasound Mediated Activity” value in experiment [4] (0.05 mM additive) is reported as over 50%. As for `O=C([O-])c1c(Cl)c(Cl)c(Cl)c(Cl)c1-c1c2cc(I)c(=O)c(I)c-2oc2c(I)c([O-])c(I)cc12.[Na+].[Na+]` [Rose Bengal], in experiment [3] (0.028 mM additive), the “% Ultrasound Mediated Activity vs Control” value came out at 28%. `O=C1C(O)=C(O)C(=O)C(O)=C1O` [Tetrahydroxy 1,4-benzoquinone]: the “% Ultrasound Mediated Activity” value in experiment [1] (0.11 mM additive) came out at 186%. Turning to Ferritin, the “% Ultrasound Mediated Activity vs Control” value in experiment [6] (ferritin approx. 0.2 mg/mL) stood at 6%. As to Hypocrellin A, in experiment [8] (0.025 mM additive), the “% Ultrasound Mediated Activity vs Control” value was over 30%. On to “Iron(III) phthalocyanine-4,4′,4″,4″′-tetrasulfonic acid”, for which the “% Ultrasound Mediated Activity vs Control” value in experiment [8] (0.025 uM additive) is recorded as over 30%.
